Series [1] in a line: Pairwise competitive crystallization with L1, Na-based system. As for the experimental part: (§1) The experiments described below were generally conducted as described above and as described in Rajbanshi et al. 2012.
To assess the size recognition of the crystalline capsule in the Na-based system, similar pairwise competitive crystallization experiments were performed with L1 (two equivalents) and Na2SO4/Na2SeO4 mixtures (one equivalent each) in H2O/MeOH. […] The SO4^2−/SeO4^2− molar ratio found in the crystalline solid resulting from the competitive crystallization was 31.3, indicating strong size recognition for SO4^2−. […] The increased SO4^2−/SeO4^2− selectivity in the Na-based system may be attributed to the smaller size of the Na capsule (d(N . . . N)=9.51 Å) compared to the Mg capsule (d(N . . . N)=9.65 Å), which favored the smaller sulphate anion.
In comparison with the good SO4^2−/SeO4^2− selectivity observed in the Na-based crystallizations, the competitive crystallization experiment involving a Na2SO4/Na2CrO4 mixture under similar conditions yielded crystals with a SO4^2−/CrO4^2− ratio of only 2.0. […] As a result, binding of chromate is inherently favored due to its stronger hydrogen bond acceptor ability compared to sulphate, a factor that apparently offsets much of the size discrimination effect.

The nature of series [2]: Pairwise competitive crystallization with L1, K-based system.
Excerpt: as §1
For the K-based system, pairwise competitive crystallizations with L1 gave SO4^2/SeO4^2− selectivity and SO4^2−/CrO4^2− selectivity ratios of 13.3 and 1.1, respectively. The potassium capsule was the smallest of the three systems (d(N . . . N)=9.21 Å).

The nature of series [3]: Sulfate separation and L1 recycling, Mg-based system, Simulant 1. As to the method:
For comparison purposes, solid L1.2H2O (478 mg, 0.88 mmol) and Mg(NO3)2 (113 mg, 0.44 mmol) were added to 10 mL of Simulant 1 solution (Table 1) containing 0.44 mmol SO4^2−. The mixture was stirred magnetically at room temperature for 48 h, and the resulting solid was filtered, washed with water, and dried. The identity of the crystalline product, MgSO4(L1)2(H2O)6 (Compound 3) was confirmed by PXRD and FTIR spectroscopy.
To recover and recycle L1, crystals of Compound 3 (457 mg, 0.368 mmol) were dissolved in 1 M HNO3 (1 mL) to form a clear solution to which was added 1 M NaOH (2 mL). The mixture was stirred at room temperature overnight, and the resulting solid was filtered, washed with water, and dried. Yield: 388 mg. […] The solid mixture of L1.2H2O and Mg(OH)2 could be recycled by adding it to a fresh solution of the simulant, thereby initiating another separation cycle.
The recovered solid L1 and magnesium hydroxide were then added to a fresh simulant solution to start another cycle. Such cycling was repeated twice more. […] This established that the ligand is robust enough to survive at least three recovery cycles. Although this magnesium-based system is not applicable to the full alkaline conditions encountered in the nuclear waste, the ease of operation coupled with high efficiency and good ligand recyclability opens the door to other industrial sulfate separations from simpler, less basic aqueous solutions.

Series [4] is described as follows: Relative solubility in water. Format: physicochemical. The following applies: pure water. From the text:
The final crystalline solid was isolated in 90% yield, and its PXRD and FTIR spectra corresponded to those of pure Compound 1 (FIG. 4). The relatively long reaction time required to convert L1 to Compound 1 appeared to proceed via a three-phase process involving slow dissolution of L1 and its recrystallization into Compound 1.

The conditions of series [5]: Mg-based system (Rajbanshi et al. 2012); cited from earlier work.

SMILES strings stand for the structures.

On to `O=C(NCCN(CCNC(=O)Nc1cccnc1)CCNC(=O)Nc1cccnc1)Nc1cccnc1` [Compound L1], for which the “molar ratio of sulphate over competing carbonate in crystals” value in series [1] (L1 2 equiv, Na2SO4 and Na2CO3 1 equiv each, H2O/MeOH, elemental analysis) amounted to 11.5. In series [1] (L1 2 equiv, Na2SO4 and Na2SO3 1 equiv each, H2O/MeOH, elemental analysis), the “molar ratio of sulphate over competing sulphite in crystals” value is recorded as 5.9. Besides, the “SO4^2−/CrO4^2− ratio in crystals” value in series [1] (Na2SO4/Na2CrO4 mixture) was determined as 2.0. The “SO4^2−/CrO4^2− selectivity ratio” value in series [2] amounted to 1.1. The “SO4^2−/SeO4^2− selectivity ratio” value in series [2] turned out to be 13.3. Moreover, the recovery of sulfate in series [3] (Simulant 1, first listed cycle) was 99.6%; in series [3] (Simulant 1, second listed cycle), 99.4%; in series [3] (Simulant 1, third listed cycle), 97.9%. Besides, the “solubility relative to Compound 1” value in series [4] is on record as “less soluble than Compound 1”. Further, the “SO4^2−/SeO4^2− ratio” value in series [5] is recorded as 3.

The values are drawn from patent publication US9260326B2, “Selective oxoanion separation using a tripodal ligand” (UT-BATTELLE, LLC, priority 2012, dated 2016).
